Test results published in US20210220368A1, “COMPOSITIONS COMPRISING TIMOLOL AND THEIR USE IN THE TREATMENT OF ROSACEA BY TOPICAL ADMINISTRATION” (Almirall, S.A., priority 2016, published 2021).

Columns and labels:
[1] = tested on: capsaicin-induced vasodilation; assay: Vasodilation (erythema) induced by topical capsaicin in the ear of CD1 mice; assay type: in vivo, CD-1 mice; conditions: timolol 1%, brimonidine 0.33%, oxymetazoline 0.88% solutions, topical to the ear before capsaicin; peak erythema 45 min after capsaicin, Mexameter
Procedure: Evaluation of the Effect of Topical Timolol, Brimonidine and Oxymetazoline in Vasodilation Induced by Topical Application of Capsaicin in the Ear of CD1 Mice
Neurogenic skin inflammation was induced by capsaicin (Alacapsin 0.075% cream) on the ear of CD-1 mice. Capsaicin induces the release of neuropeptides most of which have vasodilatory properties. In this model vasodilation is evaluated with a narrowband spectrophotometer probe (Mexameter) that measures peak absorption of haemoglobin. The quantity of light absorbed by the skin is calculated as Mexameter® arbitrary units, and this measure of erythema can be considered a surrogate of vasodilation. […] Treatment effects are reported at this maximal induction of erythema.
Timolol 1%, brimonidine 0.33% and oxymetazoline 0.88% solutions were applied topically to the mouse ear before capsaicin induction.
Results described represent peak erythema of four groups of animals and are reported as mexameter arbitrary units. Each group included 6-12 animals. Numbers above the bars indicate the percentage inhibition of the corresponding group vs the capsaicin control group.

TPA-induced ear oedema [2] = assay: TPA-induced ear oedema model in Balb/c mice; assay type: in vivo; conditions: timolol 1%, brimonidine 0.2% in acetone, topical, 30 min before and 15 min after TPA; ear weight at T+6 h; p<0.005
Procedure: Evaluation of the Anti-Oedema Effect of Timolol and Brimonidine after Two Topical Applications in the TPA-Induced Ear Oedema Model in Balb/c Mice.
The oedema is induced by means of a single application to the right ear of the mouse of 20 μl of a solution of TPA (phorbol 12-myristate 13-acetate) in acetone at 0.01%. The test compounds are diluted in acetone and applied 30 minutes before and 15 minutes after TPA. The weight of the mouse ears is measured at T+6 h and the weight of the left ear is subtracted from the one of the right ear.
Timolol was applied at a concentration of 1% before and after TPA application. The alpha agonist, brimonidine 0.2% was also tested for comparison.
Each group included 12 animals. Numbers above the bars indicate the percentage inhibition of the corresponding group of treated animals vs the control group.

TPA-induced ear oedema [3] = conditions: topical brimonidine 0.2%, mice; Piwnica et al., J. Dermatol. Sci. 2014; cited from earlier work
[4] = tested on: erythematotelangiectatic rosacea; conditions: topical timolol, human subjects with erythematotelangiectatic rosacea; Jaque et al., Rev. Chilena Dermatol 2012; cited from earlier work

SMILES	percentage inhibition of ear vasodilation (erythema) vs capsaicin control group [1]	inhibition of ear oedema vs control group (TPA-induced ear oedema [2])	inhibition of TPA-induced ear oedema (TPA-induced ear oedema [3])	clinical benefit [4]
Brc1c(NC2=NCCN2)ccc2nccnc12 [brimonidine]	56%	around 50%	50%	–
Cc1cc(C(C)(C)C)c(O)c(C)c1CC1=NCCN1 [oxymetazoline]	60%	–	–	–
CC(C)(C)NC[C@H](O)COc1nsnc1N1CCOCC1 [timolol, (S)-1-(tert-butylamino)-3-[(4-morpholin-4-yl-1,2,5-thiadiazol-3-yl)oxy]propan-2-ol]	44%	around 50%	–	no clinical benefit
